The record followed here is patent publication US9982017B2, “Synthetic apelin mimetics for the treatment of heart failure” (priority 2012, dated 2018).

One may read the EC50 as the concentration that produces a half-maximal response.

The nature of series [1]: Surrogate Activity-Based Plasma Stability Assay (calcium flux EC50 after incubation with 5% rat plasma). The settings on record: not told. In general terms: A change in cytosolic calcium serves as a functional read-out for many receptors and channels.
Procedure: (§1) The slope of this line, k, was determined by linear regression (Microsoft Excel). • Stability half-life was then calculated by the formula, t ½=0.693÷k Surrogate Activity-Based Plasma Stability Assay:
(§2) The calcium flux protocol described above was followed, with the following changes. The peptides were also incubated with 5% rat plasma (Bioreclamation # [sequence]-M, Na Heparin-treated). Readings were taken at time points t0 and t24 hrs, after incubation in a 37° C. tissue culture incubator. Peptide plasma half-life in minutes was estimated by calculating the following:
2) Calculate slope of value above and
Another series is described as follows: in vitro. Conditions: rat, not told.
Series [2] in a line: Plasma Stability Assay (LC-MS). The settings on record: male, Sprague-Dawley, heparinized rat plasma, 37° C., Table 3, read-out: Plasma stability t½. It counts as in vitro ADME. As to the method:
• Working solution: 1 mg/mL test article is prepared in Milli-Q water • Extraction solution: Methanol:Acetonitrile:Water (1:1:1) with 0.1% Formic Acid and 400 ng/mL Glyburide. • Plasma: Male Sprague-Dawley rat plasma (with sodium heparin), purchased from Bioreclamation LLC (Liverpool, N.Y.). • Whole blood: Male Sprague Dawley whole blood (with sodium heparin), purchased from Bioreclamation LLC (Liverpool, N.Y.) • Lung homogenate: Male rat Sprague Dawley lung was purchased from Bioreclamation LLC (Liverpool, N.Y.). The lung was homogenized using polytron homogenizer after addition of 5× volume of 1×PBS. The homogenate was centrifuged at 9000 rpm for 10 min at 4° C. The supernatant was centrifuged again at 3000 rpm for 30 min to make a clear supernatant. Protein concentration was determined using a commercial kit (Pierce, Thermo Scientific). Sample Preparation Procedure:
Test article was prepared in one of the following biological matrices: heparinized rat plasma, heparinized rat whole blood or lung homogenate. The plasma and whole blood sample was prepared at 5000 ng/mL by adding 5 uL of 1 mg/mL Working solution to 995 uL of rat plasma or whole blood. Lung homogenate samples were prepared by diluting lung homogenate to 1 mg/ml protein concentration with phosphate buffered saline (PBS), followed by addition of 5 uL Working solution to 995 uL diluted lung homogenate. The samples were incubated at 37° C. with gentle shaking (65˜75 rpm) in a water bath incubator. At times 0 min, 5 min, 15 min, 30 min, 60 min, 120 and 240 min, 25 uL aliquots of incubation samples were transferred to 96-well plate and immediately protein precipitated using 150 uL of Extraction solution. After completion of incubation experiment, the sample plate was centrifuged at 4000 rpm at 4° C. for 10 minutes. Afterwards, a pipetting device (Tecan Temo) was used to tranfer the supernatants to another plate and add 50 uL of water to all samples. The plate was vortexed prior to LC-MS analysis. • LC-MS Analysis of Stability Samples • HPLC: Agilent 1290 HPLC with autosampler • Column: MAC-MOD ACE C18, 3 μm, 30 mm×2.1 mm i.d. • Mobile phase A: 0.1% Formic acid in acetonitrile • Mobile phase B: 0.1% Formic acid in water Gradient Program: […]

For the next series, the target named is T1, hAPJ (Homo sapiens, UniProt P35414).
T1 sequence (P35414 1-380): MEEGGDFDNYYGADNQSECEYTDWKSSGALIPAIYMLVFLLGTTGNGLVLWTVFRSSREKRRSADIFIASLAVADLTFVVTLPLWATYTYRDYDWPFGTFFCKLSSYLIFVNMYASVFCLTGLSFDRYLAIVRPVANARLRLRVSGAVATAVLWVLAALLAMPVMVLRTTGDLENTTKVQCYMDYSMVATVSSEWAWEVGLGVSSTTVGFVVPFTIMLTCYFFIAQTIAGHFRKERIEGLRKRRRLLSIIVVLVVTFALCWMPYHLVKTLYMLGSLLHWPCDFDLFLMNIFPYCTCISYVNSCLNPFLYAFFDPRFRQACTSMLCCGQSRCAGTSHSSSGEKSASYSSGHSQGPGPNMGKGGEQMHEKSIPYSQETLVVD
The series can be described thus: hAPJ Calcium Flux Assay. Conditions: Chem-5 APJ stable cells, FLIPR Calcium 4 dye; read-out: hAPJ Ca^2+ Flux EC50. It counts as cell-based.

Setting [3] is: Surrogate Activity based Plasma stability t½.
The mark [4] stands for this setting: Surrogate activity-based Plasma stability t½.

Molecules are shown by their SMILES. *1 amine or outer side, *2 acyl side, *3 side chain or, on linkers, in order; H or OH if unused. Where a SMILES comes first, the peptide text is derived from it. Bridges are numbered along the chain shown (N, C = ends). [ ]: non-standard residue; d: D form. The star is where a group is joined. Palmitoyl = CCCCCCCCCCCCCCCC(=O)*; Cha = N[C@@H](CC1CCCCC1)C(=O)O; pGlu = O=C1CC[C@@H](C(=O)O)N1; CH2COCH2 = O=C(C[*:1])C[*:2]; NHPhenethyl = c1ccc(CCN*)cc1; Nle = CCCC[C@H](N)C(=O)O; AEEA = NCCOCCOCC(=O)O; Inp = O=C(O)C1CCNCC1

Procedure for hAPJ: Chem-5 APJ stable cells (Millipore # HTS068C) were plated in 384-well format with 10,000 cells/well in 25 ul growth media, then grown 24 hours in a 37° C. tissue culture incubator. One hour before the assay, 25 ul/well FLIPR Calcium 4 dye (Molecular Devices R8142) with 2.5 mM probenecid was added, and cells were incubated one hour in a 37° C. tissue culture incubator. Peptides were solubilized in HBSS, HEPES & 0.1% BSA buffer, and serially-diluted 10-fold, from 50 uM to 5 pM, in triplicate. FLIPR Tetra was used to add peptide to the cells with dye (1:5, for final peptide concentrations ranging from 10 uM to 1 pM). FLIPR dye inside the cells emitted fluorescence after binding to calcium, while fluorescence from outside the cells was masked. Fluorescence was measured using 470-495 excitation and 515-575 emission wavelengths on the FLIPR Tetra. Readings were done for 3 minutes total, beginning 10 seconds before the peptide addition. Maximum-minimum values were calculated and plotted for each peptide concentration, and Graph Pad prism software was used to calculate EC50 values at the curve inflection points, for calcium flux stimulation by peptides.
Procedure for in vitro: as §1, §2
2) Calculate slope of value above and

As to `CCCC[C@@H]1NC(=O)[C@@H]2CCCN2C(=O)CNC(=O)[C@H](CCCCN)NC(=O)[C@@H]2CSSC[C@H](NC(=O)[C@@H]3CCCN3C(=O)[C@H](CCCNC(=N)N)NC(=O)[C@@H]3CCC(=O)N3)C(=O)N[C@@H](CC(C)C)C(=O)N[C@@H](CSSC[C@@H](C(=O)N[C@@H](Cc3ccccc3)C(=O)O)NC1=O)C(=O)N2` [Example 28, pE-R-P-C-L-C-C-K-G-P-Nle-C-F-OH] ([pGlu]RPCLCCKGP[Nle]CF-OH; disulfide 4-7, 6-12), the half-life in series [1] came to 7.34 h.

Consider `N=C(N)NCCC[C@H](NC(=O)[C@@H]1CCCN1C(=O)[C@H](CCCNC(=N)N)NC(=O)[C@@H]1CCC(=O)N1)C(=O)N[C@@H](CC1CCCCC1)C(=O)N[C@H]1CSSC[C@@H](C(=O)N[C@@H](Cc2ccccc2)C(=O)O)NC(=O)[C@H](CC2CCCCC2)NC(=O)[C@@H]2CCCN2C(=O)CNC(=O)[C@H](CCCCN)NC(=O)[C@H](Cc2c[nH]cn2)NC1=O` [Example 14, pE-R-P-R-Cha-C-H-K-G-P-Cha-C-F-OH] ([pGlu]RPR[Cha]CHKGP[Cha]CF-OH; disulfide 6-12), for which the half-life in the series “in vitro” (setting [3]) and in the series “in vitro” (setting [4]) was 1.42 h each time. Besides, the half-life at 5000 ng/mL in series [2] is 1.05 h.

On to `CCCC[C@@H]1NC(=O)[C@@H]2CCCN2C(=O)CNC(=O)[C@H](CCCCN)NC(=O)[C@H](Cc2c[nH]cn2)NC(=O)[C@@H](NC(=O)[C@H](CC(C)C)NC(=O)[C@H](CCCNC(=N)N)NC(=O)[C@@H]2CCCN2C(=O)[C@H](CCCNC(=N)N)NC(=O)[C@@H]2CCC(=O)N2)CSSC[C@@H](C(=O)NCCc2ccccc2)NC1=O` [Example 12, pE-R-P-R-L-C-H-K-G-P-Nle-C-Phenethylamine] ([pGlu]RPRLCHKGP[Nle]C-NHPhenethyl; disulfide 6-12), for which the half-life was 1.6 h in “in vitro” (setting [3]) and 1.56 h in the series “in vitro” (setting [4]). Moreover, the half-life at 5000 ng/mL in series [2] worked out at 0.898 h.

For `CCCC[C@@H]1NC(=O)[C@@H]2CCCN2C(=O)CNC(=O)[C@H](CCCCN)NC(=O)[C@H](Cc2c[nH]cn2)NC(=O)[C@@H](NC(=O)[C@H](CC(C)C)NC(=O)[C@H](CCCNC(=N)N)NC(=O)[C@@H]2CCCN2C(=O)[C@H](CCCNC(=N)N)NC(=O)[C@@H](N)CCCNC(=N)N)CSSC[C@@H](C(=O)N[C@@H](Cc2ccccc2)C(=O)O)NC1=O` [Example 17, H-R-R-P-R-L-C-H-K-G-P-Nle-C-F-OH] (H-RRPRLCHKGP[Nle]CF-OH; disulfide 6-12), the half-life in “in vitro” (setting [3]) and in “in vitro” (setting [4]) was 0.235 h each time. Also, in series [2], the half-life at 5000 ng/mL stood at 0.0383 h.

`CCCC[C@@H]1NC(=O)[C@@H]2CCCN2C(=O)CNC(=O)[C@H](CCCCN)NC(=O)[C@@H]2CSSC[C@H](NC(=O)[C@H](CCCNC(=N)N)NC(=O)[C@@H]3CCC(=O)N3)C(=O)N[C@@H](CCCNC(=N)N)C(=O)N[C@@H](CC(C)C)C(=O)N[C@@H](CSSC[C@@H](C(=O)N[C@@H](Cc3ccccc3)C(=O)O)NC1=O)C(=O)N2` [Example 29, pE-R-C-R-L-C-C-K-G-P-Nle-C-F-OH] ([pGlu]RCRLCCKGP[Nle]CF-OH; disulfide 3-7, 6-12): the half-life in series [1] was determined as 3.61 h.

On to `CCCC[C@@H]1NC(=O)[C@@H]2CCCN2C(=O)CNC(=O)[C@H](CCCCN)NC(=O)[C@H](Cc2c[nH]cn2)NC(=O)[C@@H](NC(=O)[C@H](CC(C)C)NC(=O)[C@H](CCCNC(=N)N)NC(=O)[C@@H]2CCCN2C(=O)[C@H](CCCNC(=N)N)NC(=O)[C@@H]2CCC(=O)N2)CSSC[C@@H](C(=O)N[C@H](Cc2ccccc2)C(=O)O)NC1=O` [Example 13, pE-R-P-R-L-C-H-K-G-P-Nle-C-f-OH] ([pGlu]RPRLCHKGP[Nle]C[dF]-OH; disulfide 6-12), for which the half-life in “in vitro” (setting [3]) and in “in vitro” (setting [4]) was 4.73 h throughout. Moreover, in series [2], the half-life at 5000 ng/mL was found to be 3.05 h.

The compound `CCCCCCCCCCCCCCCC(=O)NCCOCCOCC(=O)N[C@@H](CCC(N)=O)C(=O)N[C@@H](CCCNC(=N)N)C(=O)N1CCC[C@H]1C(=O)N[C@@H](CCCNC(=N)N)C(=O)N[C@@H](CC(C)C)C(=O)N[C@H]1CSSC[C@@H](C(=O)N[C@@H](Cc2ccccc2)C(=O)O)NC(=O)[C@H](CCCC)NC(=O)[C@@H]2CCCN2C(=O)CNC(=O)[C@H](CCCCN)NC(=O)[C@H](Cc2c[nH]cn2)NC1=O` [Example 24, Palmitoyl-O2Oc-Q-R-P-R-L-C-H-K-G-P-Nle-C-F-OH] ({Palmitoyl-AEEA}-QRPRLCHKGP[Nle]CF-OH; disulfide 6-12) returned a half-life in the series “in vitro” (setting [4]) of 5.06 h. Also, the EC50 on hAPJ amounted to 32.7 nM.

`CCCC[C@@H]1NC(=O)[C@@H]2CCCN2C(=O)CNC(=O)[C@H](CCCCN)NC(=O)[C@H](Cc2cnc[nH]2)NC(=O)[C@@H](NC(=O)[C@H](CC(C)C)NC(=O)[C@H](CCCNC(=N)N)NC(=O)[C@@H]2CCCN2C(=O)[C@H](CCCNC(=N)N)NC(=O)[C@@H]2CCC(=O)N2)CSCC(=O)CSC[C@@H](C(=O)N[C@@H](Cc2ccccc2)C(=O)O)NC1=O` [Example 64, (S)-2-((3S,6R,14R,17S,20S,28aS)-17-((1H-imidazol-5-yl)methyl)-20-(4-aminobutyl)-3-butyl-14-((S)-2-((S)-5-guanidino-2-((S)-1-((S)-5-guanidino-2-((S)-5-oxopyrrolidine-2-carboxamido)pentanoyl)pyrrolidine-2-carboxamido)pentanamido)-4-methylpentanamido)-1,4,10,15,18,21,24-heptaoxohexacosahydropyrrolo[2,1-i][1,23,4,7,10,13,16,19]dithiahexaazacyclohexacosine-6-carboxamido)-3-phenylpropanoic acid] ([pGlu]RPRLCHKGP[Nle]CF-OH; linker 6-12 via CH2COCH2): in series [1], the half-life was 7.58 h.

As for `CCCC[C@@H]1NC(=O)[C@@H]2CCCN2C(=O)CNC(=O)[C@H](CCCCN)NC(=O)[C@H](Cc2c[nH]cn2)NC(=O)[C@@H](NC(=O)[C@H](CC(C)C)NC(=O)[C@H](CCCNC(=N)N)NC(=O)[C@@H]2CCCN2C(=O)[C@H](CCCNC(=N)N)NC(=O)C2CCNCC2)CSSC[C@@H](C(=O)N[C@@H](Cc2ccccc2)C(=O)O)NC1=O` [Example 18, H-Isn-R-P-R-L-C-H-K-G-P-Nle-C-F-OH] (H-[Inp]RPRLCHKGP[Nle]CF-OH; disulfide 6-12), the half-life in the series “in vitro” (setting [3]) and in “in vitro” (setting [4]) was 4.13 h throughout. Further, in series [2], the half-life at 5000 ng/mL was determined as 3.67 h.

Regarding `CCCC[C@@H]1NC(=O)[C@@H]2CCCN2C(=O)CNC(=O)[C@H](CCCCN)NC(=O)[C@H](Cc2cnc[nH]2)NC(=O)[C@@H](NC(=O)[C@H](CC(C)C)NC(=O)[C@H](CCCNC(=N)N)NC(=O)[C@@H]2CCCN2C(=O)[C@H](CCCNC(=N)N)NC(=O)[C@@H]2CCC(=O)N2)CSSC[C@@H](C(=O)N[C@@H](Cc2ccccc2)C(=O)O)NC1=O` [Example 8, (S)-2-((3S,6R,11R,14S,17S,25aS)-14-((1H-imidazol-5-yl)methyl)-17-(4-aminobutyl)-3-butyl-11-((S)-2-((S)-5-guanidino-2-((S)-1-((S)-5-guanidino-2-((S)-5-oxopyrrolidine-2-carboxamido)pentanoyl)pyrrolidine-2-carboxamido)pentanamido)-4-methylpentanamido)-1,4,12,15,18,21-hexaoxodocosahydro-1H-pyrrolo[2,1-j][1,2,5,8,11,14,17,20]dithiahexaazacyclotricosine-6-carboxamido)-3-phenylpropanoic acid] ([pGlu]RPRLCHKGP[Nle]CF-OH; disulfide 6-12), the half-life in “in vitro” (setting [3]) and in “in vitro” (setting [4]) was 6.78 h in each case. Moreover, the half-life at 5000 ng/mL in series [2] was 2.72 h.

Consider `CCCC[C@@H]1NC(=O)[C@@H]2CCCN2C(=O)CNC(=O)[C@H](CCCCN)NC(=O)[C@H](Cc2c[nH]cn2)NC(=O)[C@@H](NC(=O)[C@H](CC(C)C)NC(=O)[C@H](CCCNC(=N)N)NC(=O)[C@@H]2CCCN2C(=O)[C@@H](N)CCCNC(=N)N)CSSC[C@@H](C(=O)N[C@@H](Cc2ccccc2)C(=O)O)NC1=O` [Example 16, H-R-P-R-L-C-H-K-G-P-Nle-C-F-OH] (H-RPRLCHKGP[Nle]CF-OH; disulfide 5-11), for which the half-life in “in vitro” (setting [3]) and in “in vitro” (setting [4]) was 0.223 h in each case. Further, the half-life at 5000 ng/mL in series [2] turned out to be 0.17 h.
